In one data set the target is T1, HERG potassium channel (Homo sapiens, UniProt Q12809).
T1 construct: expressed in transfected cells; host or cells: HEK-293
Type of data set: binding. The method, then:
Cell paste of HEK-293 cells expressing the HERG product was suspended in 10-fold volume of 50 mM Tris buffer adjusted at pH 7.5 at 25° C. with 2 M HCl containing 1 mM MgCl2, 10 mM KCl. The cells were homogenized using a Polytron homogenizer (at the maximum power for 20 seconds) and centrifuged at 48,000 g for 20 minutes at 4° C. The pellet was resuspended, homogenized and centrifuged once more in the same manner. The resultant supernatant was discarded and the final pellet was resuspended (10-fold volume of 50 mM Tris buffer) and homogenized at the maximum power for 20 seconds. The membrane homogenate was aliquoted and stored at −80° C. until use. An aliquot was used for protein concentration determination using a Protein Assay Rapid Kit and ARVO SX plate reader (Wallac). […] Saturation was determined by incubating 20 μl of [^3H]-dofetilide and 160 μl of membrane homogenates (20-30 μg protein per well) for 60 min at room temperature in the absence or presence of 10 μM dofetilide at final concentrations (20 μl) for total or nonspecific binding, respectively. […] Receptor-bound radioactivity was quantified by liquid scintillation counting using Packard LS counter.
For the competition assay, compounds were diluted in 96 well polypropylene plates as 4-point dilutions in semi-log format. […] Receptor-bound radioactivity was quantified by counting Wallac MicroBeta plate counter.

The next data set addresses T2, human ORL1 receptor (Homo sapiens, UniProt P41146).
T2 construct: purchased PerkinElmer; host or cells: HEK-293
The experiment in a line: ORL1-receptor binding assay ([3H]nociceptin, SPA). The following applies: human ORL1 receptor transfected HEK-293 cell membranes, 0.4 nM [3H]nociceptin. The method, then: The human ORL1 receptor transfected HEK-293 cell membranes (PerkinElmer) were incubated for 45 min at room temperature with 0.4 nM [^3H]nociceptin, 1.0 mg of wheat germ agglutinin(WGA)-coated SPA beads and various concentrations of test compounds in a final volume of 200 μL of 50 mM HEPES buffer pH 7.4 containing 10 mM MgCl2 and 1 mM EDTA. Non-specific binding (NSB) was determined by the addition of 1 μM unlabeled nociceptin. After the reaction, the assay plate was centrifuged at 1,000 rpm for 1 min and then the radioactivity was measured by WALLAC 1450 MicroBeta Trilux.
The compounds of the examples were tested in the ORL1 Receptor Binding assay.

T2 sequence (P41146 whole entry): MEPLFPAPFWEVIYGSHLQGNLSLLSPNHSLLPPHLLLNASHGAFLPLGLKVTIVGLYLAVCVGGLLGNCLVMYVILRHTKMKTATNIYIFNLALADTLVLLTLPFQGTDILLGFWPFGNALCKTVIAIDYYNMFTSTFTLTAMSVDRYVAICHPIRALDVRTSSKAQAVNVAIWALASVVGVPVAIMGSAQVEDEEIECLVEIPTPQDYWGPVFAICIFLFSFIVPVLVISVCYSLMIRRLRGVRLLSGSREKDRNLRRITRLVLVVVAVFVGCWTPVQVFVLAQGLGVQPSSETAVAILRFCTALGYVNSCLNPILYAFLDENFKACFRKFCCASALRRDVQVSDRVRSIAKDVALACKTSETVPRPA
T1 sequence (Q12809 whole entry): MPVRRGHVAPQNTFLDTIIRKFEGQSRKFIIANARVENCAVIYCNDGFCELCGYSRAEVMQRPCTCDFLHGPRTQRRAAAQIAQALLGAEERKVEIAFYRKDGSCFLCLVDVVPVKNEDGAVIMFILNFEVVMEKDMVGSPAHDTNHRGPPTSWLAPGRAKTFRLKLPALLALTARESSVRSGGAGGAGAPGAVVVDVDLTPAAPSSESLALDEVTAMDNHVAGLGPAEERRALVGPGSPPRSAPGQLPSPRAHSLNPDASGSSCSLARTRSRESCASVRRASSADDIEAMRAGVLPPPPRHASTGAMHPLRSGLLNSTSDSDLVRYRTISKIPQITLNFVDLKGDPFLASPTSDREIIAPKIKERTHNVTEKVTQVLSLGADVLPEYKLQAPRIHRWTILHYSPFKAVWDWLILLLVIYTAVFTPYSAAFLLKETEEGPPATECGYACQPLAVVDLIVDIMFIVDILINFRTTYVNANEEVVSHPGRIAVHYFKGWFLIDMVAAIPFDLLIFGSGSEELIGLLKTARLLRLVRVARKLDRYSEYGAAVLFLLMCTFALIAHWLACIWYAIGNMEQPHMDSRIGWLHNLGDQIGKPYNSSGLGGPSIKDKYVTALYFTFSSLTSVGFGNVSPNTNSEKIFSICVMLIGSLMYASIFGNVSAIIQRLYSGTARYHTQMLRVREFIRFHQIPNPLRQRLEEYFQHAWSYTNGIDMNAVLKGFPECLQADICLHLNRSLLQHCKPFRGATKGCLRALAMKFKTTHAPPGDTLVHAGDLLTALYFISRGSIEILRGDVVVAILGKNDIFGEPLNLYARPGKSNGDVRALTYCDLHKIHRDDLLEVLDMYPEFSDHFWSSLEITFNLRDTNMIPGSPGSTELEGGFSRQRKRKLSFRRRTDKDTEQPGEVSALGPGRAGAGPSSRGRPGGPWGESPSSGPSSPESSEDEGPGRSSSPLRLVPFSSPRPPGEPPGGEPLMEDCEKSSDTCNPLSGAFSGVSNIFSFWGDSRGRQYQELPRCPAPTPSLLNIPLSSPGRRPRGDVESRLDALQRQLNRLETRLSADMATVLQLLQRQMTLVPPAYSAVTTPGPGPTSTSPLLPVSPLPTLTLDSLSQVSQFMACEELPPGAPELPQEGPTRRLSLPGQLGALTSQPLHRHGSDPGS

As for `CN1C(=O)C(CN2CCC3(CCc4ccccc43)CC2)Cc2ccccc21` (stereo not drawn) [Compound (i)], on HERG potassium channel, the “activity in the dofetilide binding assay” value is listed as “potent activity” and the “predicted HERG potassium channel inhibitory activity” value was “high”.
At human ORL1 receptor, `O=C(O)C(Cc1ccccc1Cl)CN1C2CCC1CC1(C2)OCCc2cc(F)ccc21` (stereo not drawn) [Example 7, 2-(2-Chlorobenzyl)-3-(6′-fluoro-3′,4′-dihydro-8H-spiro[8-azabicyclo[3.2.1]octane-3,1′-isochromen]-8-yl)propanoic acid] had a Ki of 1.3 nM.
For the compound `O=C(O)C(Cc1ccccc1Cl)CN1C2CCC1CC1(C2)OCc2ccc(F)cc21` (stereo not drawn) [Example 8, 2-(2-Chlorobenzyl)-3-(6′-fluoro-3′H,8H-spiro[8-azabicyclo[3.2.1]octane-3,1′-[2]benzofuran]-8-yl)propanoic acid], affinity at human ORL1 receptor was put at a Ki of 3.4 nM.
Still for that read-out and setting: under `O=C(O)C(Cc1cc(O)ccc1Cl)CN1C2CCC1CC1(C2)OCCc2cc(F)ccc21` (stereo not drawn) [Example 9, 2-(2-Chloro-5-hydroxybenzyl)-3-(6′-fluoro-3′,4′-dihydro-8H-spiro[8-azabicyclo[3.2.1]octane-3,1′-isochromen]-8-yl)propanoic acid] stands 1.2 nM; under `O=C(O)C(Cc1cc(O)ccc1Cl)CN1C2CCC1CC1(C2)OCc2ccc(F)cc21` (stereo not drawn) [Example 10, 2-(2-Chloro-5-hydroxybenzyl)-3-(6′-fluoro-3′H,8H-spiro[8-azabicyclo[3.2.1]octane-3,1′-[2]benzofuran]-8-yl)propanoic acid], 3.3 nM.
